Experimental findings from patent US9802941B2, “Compounds and methods for inhibiting histone demethylases” (Gilead Sciences, Inc., priority 2014, dated 2017) are described below.

Read-outs that look alike come from different tables or passages of the source. Where only a bound is given, the exact number is not on record here.

What all share (type): biochemical
For assay [1], the target named is T1, KDM4C (JMJD2C) (Homo sapiens, UniProt Q9H3R0).
T1 construct: KDM4C; BRIC, Denmark; 1-349; E. coli; host or cells: E. coli
T1 sequence (Q9H3R0 1-349): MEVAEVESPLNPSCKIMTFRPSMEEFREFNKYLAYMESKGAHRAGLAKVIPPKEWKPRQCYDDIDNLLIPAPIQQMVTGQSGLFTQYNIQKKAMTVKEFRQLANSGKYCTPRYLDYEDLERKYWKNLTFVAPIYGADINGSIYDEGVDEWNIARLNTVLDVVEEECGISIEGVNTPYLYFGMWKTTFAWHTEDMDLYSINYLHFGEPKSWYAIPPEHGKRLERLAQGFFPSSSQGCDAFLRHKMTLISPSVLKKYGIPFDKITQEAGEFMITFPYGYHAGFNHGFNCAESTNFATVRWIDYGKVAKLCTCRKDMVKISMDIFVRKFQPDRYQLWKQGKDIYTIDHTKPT
The assay can be described thus: Histone lysine demethylase AlphaLISA assay, KDM4C. The procedure: (§1) The compounds of the application, or a pharmaceutically acceptable salt, or solvate, or prodrug thereof, are tested in an in vitro AlphaLISA assay. Enzymes are dissolved in enzyme buffer and incubated before they are added to DMSO solutions of compounds of the application, or a pharmaceutically acceptable salt, or solvate, or prodrug thereof, in enzyme buffer. The reaction mixture is then incubated for an additional period of time before substrate solution is added and then the resulting mixture again incubated. Acceptor beads and suspended Epigenetic Buffer from stock are added and the suspension is again incubated before a suspension of streptavidin donor beads in Epigenetic Buffer is added. After an additional period of incubation, the plates are read.
(§2) The ability of compounds of the application to inhibit the histone lysine demethylase activity in vitro of different enzymes was determined.
(§3) The reaction mixture was incubated for another 10 minutes before 5 μL of substrate solution was added and the resulting mixture was then incubated at room temperature. […] After incubation at room temperature in the dark, the plates were read.
(§4) Enzyme Buffer: 50 mM Hepes (pH 7.4-8.0), 0.003-0.01% Tween-20, 0.1% BSA; 5 μM (NH4)2Fe(SO4)2.
Background: In Alpha technology, singlet oxygen from a donor bead excites a nearby acceptor bead.

Assay [2] has as its target T2, PHF8 (KDM7) (Homo sapiens, UniProt Q9UPP1).
T2 construct: KDM7 (PHF8); BRIC; 1-1322; Bac
The assay can be described thus: Histone lysine demethylase AlphaLISA assay, PHF8. The procedure:
as §1, §2, §3, §4

Assay [3] concerns the target T3, KDM5B (PLU-1) (Homo sapiens, UniProt Q9UGL1).
T3 construct: BRIC; 1-809; E. coli; host or cells: E. coli
T3 sequence (Q9UGL1 1-809): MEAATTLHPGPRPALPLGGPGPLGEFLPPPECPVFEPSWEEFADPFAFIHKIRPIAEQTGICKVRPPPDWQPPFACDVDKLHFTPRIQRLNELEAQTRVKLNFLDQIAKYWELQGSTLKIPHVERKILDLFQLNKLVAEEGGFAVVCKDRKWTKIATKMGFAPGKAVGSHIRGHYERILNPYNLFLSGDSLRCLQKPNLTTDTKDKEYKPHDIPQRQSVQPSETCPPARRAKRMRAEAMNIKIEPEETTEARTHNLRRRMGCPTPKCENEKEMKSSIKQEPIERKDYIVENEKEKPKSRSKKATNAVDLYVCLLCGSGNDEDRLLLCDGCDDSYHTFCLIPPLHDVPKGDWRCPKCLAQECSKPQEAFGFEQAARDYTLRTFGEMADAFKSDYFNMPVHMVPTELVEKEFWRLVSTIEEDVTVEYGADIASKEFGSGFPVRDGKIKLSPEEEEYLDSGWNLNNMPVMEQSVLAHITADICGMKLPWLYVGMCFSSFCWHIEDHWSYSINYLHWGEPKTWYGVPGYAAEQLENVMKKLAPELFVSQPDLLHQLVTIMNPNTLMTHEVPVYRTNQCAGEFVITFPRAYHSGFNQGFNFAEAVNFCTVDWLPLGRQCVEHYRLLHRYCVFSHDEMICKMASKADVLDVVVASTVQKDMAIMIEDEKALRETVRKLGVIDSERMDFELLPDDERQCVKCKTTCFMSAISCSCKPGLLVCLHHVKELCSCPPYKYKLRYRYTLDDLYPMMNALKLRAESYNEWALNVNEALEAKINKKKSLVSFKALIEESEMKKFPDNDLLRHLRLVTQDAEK
The assay can be described thus: Histone lysine demethylase AlphaLISA assay, KDM5B. The procedure:
as §1, §2, §3, §4

The target in assay [4] is T4, KDM2B (FBXL10) (Homo sapiens, UniProt Q8NHM5).
T4 construct: KDM2B; BPS,; 1-650; Bac; purchased BPS Bioscience, US; host or cells: baculovirus system
T4 sequence (Q8NHM5 1-650): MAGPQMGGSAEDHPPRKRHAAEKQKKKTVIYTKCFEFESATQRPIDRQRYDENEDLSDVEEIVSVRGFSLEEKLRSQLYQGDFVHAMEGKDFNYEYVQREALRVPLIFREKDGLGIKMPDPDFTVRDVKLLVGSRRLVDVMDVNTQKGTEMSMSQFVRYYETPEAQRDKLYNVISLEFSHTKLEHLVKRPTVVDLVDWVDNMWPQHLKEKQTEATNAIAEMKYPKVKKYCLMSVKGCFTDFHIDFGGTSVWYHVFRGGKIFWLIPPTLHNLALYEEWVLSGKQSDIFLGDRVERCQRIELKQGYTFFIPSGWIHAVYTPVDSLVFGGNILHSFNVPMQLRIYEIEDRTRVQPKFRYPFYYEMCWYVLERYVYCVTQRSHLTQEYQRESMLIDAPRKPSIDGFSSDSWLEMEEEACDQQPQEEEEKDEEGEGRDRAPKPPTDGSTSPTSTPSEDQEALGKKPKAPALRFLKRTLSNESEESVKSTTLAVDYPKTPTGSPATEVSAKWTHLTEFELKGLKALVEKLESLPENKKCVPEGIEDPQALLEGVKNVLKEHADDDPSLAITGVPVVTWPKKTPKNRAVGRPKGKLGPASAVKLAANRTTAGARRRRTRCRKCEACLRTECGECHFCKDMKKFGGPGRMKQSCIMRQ
The assay can be described thus: Histone lysine demethylase AlphaLISA assay, KDM2B. The procedure: as §1, §2, §3, §4

The mark [5] stands for this setting: AlphaLISA assay, read-out: HDME Inhibition KDM4C (IC50).
Setting [6] is: AlphaLISA, in vitro, read-out: HDME Inhibition KDM4C.
Setting [7] is: AlphaLISA, in vitro, read-out: HDME Inhibition PHF8.
The mark [8] stands for this setting: AlphaLISA assay, read-out: HDME Inhibition KDM5B (IC50).
The mark [9] stands for this setting: AlphaLISA, in vitro, read-out: HDME Inhibition KDM5B.
Where [10] appears, read: AlphaLISA, in vitro, read-out: HDME Inhibition KDM2B.
[11] abbreviates: AlphaLISA assay, read-out: HDME Inhibition PHF8 (IC50).

`CCn1cnc2cc(Cn3cnnc3CNCc3cc(C(=O)O)cc(C)n3)ccc21` [Compound 41, 2-{[({4-[(1-ethyl-1H-1,3-benzodiazol-5-yl)methyl]-4H-1,2,4-triazol-3-yl}methyl)amino]methyl}-6-methylpyridine-4-carboxylic acid]: the IC50 is more than 10 µM in assay [1] (setting [5]); more than 10 µM in assay [1] (setting [6]); 6.56 µM in assay [2] (setting [7]); more than 10 µM in assay [3] (setting [8]); more than 10 µM in assay [3] (setting [9]); 1660 nM in assay [4] (setting [10]).

For the molecule `O=C(O)c1cc(CO)nc(CNCc2nnc(-c3cccs3)n2CCCc2ccccc2)c1` [Compound 95, 2-(hydroxymethyl)-6-[({[4-(3-phenylpropyl)-5-(thiophen-2-yl)-4H-1,2,4-triazol-3-yl]methyl}amino}methyl]pyridine-4-carboxylic acid], the IC50 in assay [1] (setting [5]) is more than 10 µM; in assay [1] (setting [6]), more than 10 µM; in assay [2] (setting [7]), 9.65 µM; in assay [3] (setting [8]), more than 10 µM; in assay [3] (setting [9]) it was more than 10 µM; in assay [4] (setting [10]), 389 nM.

Take `O=C(O)c1cc(CO)nc(CNCc2nnc(Cc3cccs3)n2Cc2ccc(F)cc2)c1` [Compound 71, 2-{[({4-[(4-Fluorophenyl)methyl]-5-(thiophen-2-ylmethyl)-4H-1,2,4-triazol-3-yl}methyl)amino]methyl}-6-(hydroxymethyl)pyridine-4-carboxylic acid]: the IC50 in assay [1] (setting [5]) is more than 10 µM; in assay [1] (setting [6]), more than 10 µM; in assay [2] (setting [7]) it was 1.78 µM; in assay [3] (setting [8]) it was more than 10 µM; in assay [3] (setting [9]), more than 10 µM; in assay [4] (setting [10]), 138 nM.

On to `C=CCn1ccnc1CNCc1cc(C(=O)O)cc(C)n1` [Compound 75, 2-methyl-6-[({[1-(prop-2-en-1-yl)-1H-imidazol-2-yl]methyl}amino)methyl]pyridine-4-carboxylic acid], for which the IC50 was more than 10 µM in assay [1] (setting [5]); more than 10 µM in assay [1] (setting [6]); 1.27 µM in assay [2] (setting [7]); 0.431 µM in assay [3]; 587 nM in assay [4] (setting [10]).

Turning to `CC#CCc1cnc(CNCc2cc(C(=O)O)cc(C)n2)n1Cc1ccc(F)cc1` [Compound 112, 2-[({[5-(but-2-yn-1-yl)-1-[(4-fluorophenyl)methyl]-1H-imidazol-2-yl]methyl}amino)methyl]-6-methylpyridine-4-carboxylic acid], the IC50 in assay [1] (setting [5]) is more than 10 µM; in assay [1] (setting [6]) it was more than 10 µM; in assay [2] (setting [7]), 3.52 µM; in assay [3] (setting [8]), more than 10 µM; in assay [3] (setting [9]), more than 10 µM; in assay [4] (setting [10]), 375 nM.

As for `Cc1cc(OCc2ccccc2)c(CCNCc2cc(C(=O)O)cc(C)n2)nn1` [Compound 82, 2-[({2-[4-(benzyloxy)-6-methylpyridazin-3-yl]ethyl)amino)methyl]-6-methylpyridine-4-carboxylic acid], the IC50 in assay [1] (setting [5]) is more than 10 µM; in assay [1] (setting [6]) it was more than 10 µM; in assay [2] (setting [7]), 3.32 µM; in assay [3] (setting [8]) it was more than 10 µM; in assay [3] (setting [9]), more than 10 µM; in assay [4] (setting [10]), 1400 nM.

On to `COc1ccc(CC(C)C)c(CNCc2cc(C(=O)O)cc(C)n2)n1` [Compound 74, 2-[({[6-methoxy-3-(2-methylpropyl)pyridin-2-yl]methyl}amino)methyl]-6-methylpyridine-4-carboxylic acid], for which the IC50 in assay [2] (setting [7]) was 3.81 µM; in assay [3] (setting [8]), more than 10 µM; in assay [3] (setting [9]) it was more than 10 µM; in assay [4] (setting [10]), 1860 nM.

In the case of `Cc1cc(C(=O)O)cc(CNCc2nnc(C)n2-c2cccc(Cl)c2)n1` [Compound 58, 2-[({[4-(3-chlorophenyl)-5-methyl-4H-1,2,4-triazol-3-yl]methyl}amino)methyl]-6-methylpyridine-4-carboxylic acid], the IC50 is more than 10 µM in assay [2] (setting [11]); more than 10 µM in assay [2] (setting [7]); more than 10 µM in assay [3] (setting [8]); more than 10 µM in assay [3] (setting [9]); more than 10000 nM in assay [4] (AlphaLISA assay, read-out: HDME Inhibition KDM2B (IC50)); more than 10000 nM in assay [4] (setting [10]).

In the case of `COc1ccc(OCCc2ccccc2)c(CNCc2cc(C(=O)O)cc(C)n2)n1` [Compound 104, 2-[({[6-methoxy-3-(2-phenylethoxy)pyridin-2-yl]methyl}amino)methyl]-6-methylpyridine-4-carboxylic acid], the IC50 in assay [2] (setting [7]) was 0.4 µM; in assay [3] (setting [8]) it was more than 10 µM; in assay [3] (setting [9]), more than 10 µM; in assay [4] (setting [10]), 145 nM.

`COC(=O)c1cn(Cc2ccc(F)cc2)c(CNCc2cc(C(=O)O)cc(CO)n2)n1` [Compound 106, 2-{[({1-[(4-fluorophenyl)methyl]-4-(methoxycarbonyl)-1H-imidazol-2-yl}methyl)amino]methyl}-6-(hydroxymethyl)pyridine-4-carboxylic acid]: the IC50 was 2.77 µM in assay [2] (setting [7]), more than 10 µM in assay [3] (setting [8]), more than 10 µM in assay [3] (setting [9]) and 3100 nM in assay [4] (setting [10]).

With `Cc1cc(C(=O)O)cc(CNCCc2ncccc2C2=CCCC2)n1` [Compound 59, 2-[({2-[3-(cyclopent-1-en-1-yl)pyridin-2-yl]ethyl}amino)methyl]-6-methylpyridine-4-carboxylic acid], the IC50 is more than 10 µM in assay [2] (setting [11]), more than 10 µM in assay [2] (setting [7]) and 2750 nM in assay [4] (setting [10]).

For the molecule `Cc1cc(C(=O)O)cc(CNCc2nocc2COc2ccc(F)cc2)n1` [Compound 76, 2-[({[4-(4-fluorophenoxymethyl)-1,2-oxazol-3-yl]methyl}amino)methyl]-6-methylpyridine-4-carboxylic acid], the IC50 is more than 10 µM in assay [2] (setting [11]); more than 10 µM in assay [2] (setting [7]); more than 10 µM in assay [3] (setting [8]); more than 10 µM in assay [3] (setting [9]); 4730 nM in assay [4] (setting [10]).
